According to publication PMC12657942, “Measurement and modeling of rizatriptan in supercritical CO2 for pharmaceutical processing” (Scientific Reports, 2025):
In brackets after ≈: the same amount, converted by molar mass. Where two headings read alike, the source gives them in different places.

Test: Solubility of rizatriptan in supercritical CO2, static gravimetric method
Format: physicochemical
Experimental: A specialized high-pressure system is employed to measure the solubility of rizatriptan using gravimetric techniques in a supercritical CO2[6]. A 200 mL vessel capable of withstanding pressures up to 35 MPa and temperatures up to 423 K is prepared with leak-free seals, valves, and fittings. All valves and connectors were 1/8 inch in size. The system’s pressure and temperature sensors are calibrated for accuracy. Next, 2000 mg of rizatriptan powder is weighed precisely using an analytical balance with 0.01 mg of sensitivity. The powder is then compacted into 5-mm diameter tablets to ensure uniformity and structural integrity. The tablets are placed in a basket inside the vessel to maximize their exposure to SC-CO2. CO2 is introduced gradually using a high-precision pump (SC-1000, SUPEREX), with the pressure increased in 0.05 MPa increments to maintain stability. The pressure is monitored and held within ± 0.01 MPa. Temperature is controlled within ± 0.1 K using a thermocouple, and the mixture is stirred at 250 rpm to ensure uniformity. […] The pressure and temperature indicators are checked to ensure stability. After equilibration, the vessel is carefully depressurized to ambient conditions to halt dissolution without losing the sample. The remaining tablets are then removed and cleaned of residual CO2. If needed, they are dried in a desiccator. The undissolved drug is weighed using a high-precision balance. The experiment is replicated at least three times to calculate the mean solubility and standard deviation. The following formula was used to calculate the mass of dissolved rizatriptan:1
Include the molecular weights of rizatriptan ([…]) and CO2 (44.01 g/mol) in the mole fraction calculations.2 3 4 5
The measurements were conducted at four isotherms (308.2 K, 318.2 K, 328.2 K, and 338.2 K) and […] pressure points (12, 15, 18, 21, 24, 27, 30 MPa). Table 3 documents the experimental conditions, including temperature, pressure, SC-CO2 density, mole fraction, standard deviation, and solubility in grams per liter.

Structure (SMILES): CN(C)CCc1c[nH]c2ccc(Cn3cncn3)cc12 [Rizatriptan, Rizatriptan benzoate]
- Experimental mole fraction (y) in supercritical carbon dioxide, y × 10^4 (T 328.0 K (text 328.2 K), P 30 MPa, ρCO2 850.83 kg/m^3): 0.380 × 10^4
- Experimental mole fraction (y) in supercritical carbon dioxide, y × 10^4 (T 338.0 K (text 338.2 K), P 12 MPa, ρCO2 384.17 kg/m^3): 0.024 × 10^4
- Experimental mole fraction (y) in supercritical carbon dioxide, y × 10^4 (T 338.0 K (text 338.2 K), P 15 MPa, ρCO2 555.33 kg/m^3): 0.136 × 10^4
- Experimental mole fraction (y) in supercritical carbon dioxide, y × 10^4 (T 338.0 K (text 338.2 K), P 18 MPa, ρCO2 651.28 kg/m^3): 0.213 × 10^4
- Experimental mole fraction (y) in supercritical carbon dioxide, y × 10^4 (T 338.0 K (text 338.2 K), P 21 MPa, ρCO2 709.59 kg/m^3): 0.279 × 10^4
- Experimental mole fraction (y) in supercritical carbon dioxide, y × 10^4 (T 338.0 K (text 338.2 K), P 24 MPa, ρCO2 751.27 kg/m^3): 0.334 × 10^4
- Experimental mole fraction (y) in supercritical carbon dioxide, y × 10^4 (T 338.0 K (text 338.2 K), P 27 MPa, ρCO2 783.19 kg/m^3): 0.388 × 10^4
- Experimental mole fraction (y) in supercritical carbon dioxide, y × 10^4 (T 338.0 K (text 338.2 K), P 30 MPa, ρCO2 809.68 kg/m^3): 0.419 × 10^4
- crossover pressure (solubility isotherms 308.2–338.2 K in SC-CO2): approximately 15 MPa
- solubility at 240 min (supercritical CO2, 308.2 K to 338.2 K, 12 to 30 MPa, read-out: solubility (dissolution concentration) in SC-CO2, range over all conditions): 8 to 302 µg/mL (≈ 29.7 to 1120 µM)
- solubility at 240 min (supercritical CO2, T 308.0 K (text 308.2 K), P 12 MPa, ρCO2 768.52 kg/m^3, read-out: Solubility in supercritical carbon dioxide): 61.6 µg/mL (≈ 229 µM)
- solubility at 240 min (supercritical CO2, T 308.0 K (text 308.2 K), P 15 MPa, ρCO2 816.10 kg/m^3, read-out: Solubility in supercritical carbon dioxide): 88 µg/mL (≈ 327 µM)
- solubility at 240 min (supercritical CO2, T 308.0 K (text 308.2 K), P 18 MPa, ρCO2 816.10 kg/m^3, read-out: Solubility in supercritical carbon dioxide): 107 µg/mL (≈ 396 µM)
- solubility at 240 min (supercritical CO2, T 308.0 K (text 308.2 K), P 21 MPa, ρCO2 874.55 kg/m^3, read-out: Solubility in supercritical carbon dioxide): 138 µg/mL (≈ 512 µM)
- solubility at 240 min (supercritical CO2, T 308.0 K (text 308.2 K), P 24 MPa, ρCO2 895.66 kg/m^3, read-out: Solubility in supercritical carbon dioxide): 181 µg/mL (≈ 672 µM)
- solubility at 240 min (supercritical CO2, T 308.0 K (text 308.2 K), P 27 MPa, ρCO2 913.70 kg/m^3, read-out: Solubility in supercritical carbon dioxide): 210 µg/mL (≈ 779 µM)
- solubility at 240 min (supercritical CO2, T 308.0 K (text 308.2 K), P 30 MPa, ρCO2 929.85 kg/m^3, read-out: Solubility in supercritical carbon dioxide): 237 µg/mL (≈ 878 µM)
- solubility at 240 min (supercritical CO2, T 318.0 K (text 318.2 K), P 12 MPa, ρCO2 659.80 kg/m^3, read-out: Solubility in supercritical carbon dioxide): 40.6 µg/mL (≈ 151 µM)
- solubility at 240 min (supercritical CO2, T 318.0 K (text 318.2 K), P 15 MPa, ρCO2 743.83 kg/m^3, read-out: Solubility in supercritical carbon dioxide): 83.5 µg/mL (≈ 310 µM)
- solubility at 240 min (supercritical CO2, T 318.0 K (text 318.2 K), P 18 MPa, ρCO2 790.29 kg/m^3, read-out: Solubility in supercritical carbon dioxide): 114 µg/mL (≈ 423 µM)
- solubility at 240 min (supercritical CO2, T 318.0 K (text 318.2 K), P 21 MPa, ρCO2 823.80 kg/m^3, read-out: Solubility in supercritical carbon dioxide): 158 µg/mL (≈ 585 µM)
- solubility at 240 min (supercritical CO2, T 318.0 K (text 318.2 K), P 24 MPa, ρCO2 850.15 kg/m^3, read-out: Solubility in supercritical carbon dioxide): 213 µg/mL (≈ 790 µM)
- solubility at 240 min (supercritical CO2, T 318.0 K (text 318.2 K), P 27 MPa, ρCO2 872.14 kg/m^3, read-out: Solubility in supercritical carbon dioxide): 250 µg/mL (≈ 928 µM)
- solubility at 240 min (supercritical CO2, T 318.0 K (text 318.2 K), P 30 MPa, ρCO2 890.90 kg/m^3, read-out: Solubility in supercritical carbon dioxide): 269 µg/mL (≈ 998 µM)
- solubility at 240 min (supercritical CO2, T 328.0 K (text 328.2 K), P 12 MPa, ρCO2 506.75 kg/m^3, read-out: Solubility in supercritical carbon dioxide): 20.4 µg/mL (≈ 75.7 µM)
- solubility at 240 min (supercritical CO2, T 328.0 K (text 328.2 K), P 15 MPa, ρCO2 654.94 kg/m^3, read-out: Solubility in supercritical carbon dioxide): 57.8 µg/mL (≈ 215 µM)
- solubility at 240 min (supercritical CO2, T 328.0 K (text 328.2 K), P 18 MPa, ρCO2 724.13 kg/m^3, read-out: Solubility in supercritical carbon dioxide): 114 µg/mL (≈ 421 µM)
- solubility at 240 min (supercritical CO2, T 328.0 K (text 328.2 K), P 21 MPa, ρCO2 768.74 kg/m^3, read-out: Solubility in supercritical carbon dioxide): 165 µg/mL (≈ 613 µM)
- solubility at 240 min (supercritical CO2, T 328.0 K (text 328.2 K), P 24 MPa, ρCO2 801.92 kg/m^3, read-out: Solubility in supercritical carbon dioxide): 216 µg/mL (≈ 800 µM)
- solubility at 240 min (supercritical CO2, T 328.0 K (text 328.2 K), P 27 MPa, ρCO2 828.51 kg/m^3, read-out: Solubility in supercritical carbon dioxide): 260 µg/mL (≈ 966 µM)
- solubility at 240 min (supercritical CO2, T 328.0 K (text 328.2 K), P 30 MPa, ρCO2 850.83 kg/m^3, read-out: Solubility in supercritical carbon dioxide): 288 µg/mL (≈ 1070 µM)
- solubility at 240 min (supercritical CO2, T 338.0 K (text 338.2 K), P 12 MPa, ρCO2 384.17 kg/m^3, read-out: Solubility in supercritical carbon dioxide): 8.3 µg/mL (≈ 30.8 µM)
- solubility at 240 min (supercritical CO2, T 338.0 K (text 338.2 K), P 15 MPa, ρCO2 555.33 kg/m^3, read-out: Solubility in supercritical carbon dioxide): 67.5 µg/mL (≈ 251 µM)
- solubility at 240 min (supercritical CO2, T 338.0 K (text 338.2 K), P 18 MPa, ρCO2 651.28 kg/m^3, read-out: Solubility in supercritical carbon dioxide): 124 µg/mL (≈ 459 µM)
- solubility at 240 min (supercritical CO2, T 338.0 K (text 338.2 K), P 21 MPa, ρCO2 709.59 kg/m^3, read-out: Solubility in supercritical carbon dioxide): 176 µg/mL (≈ 655 µM)
- solubility at 240 min (supercritical CO2, T 338.0 K (text 338.2 K), P 24 MPa, ρCO2 751.27 kg/m^3, read-out: Solubility in supercritical carbon dioxide): 223 µg/mL (≈ 829 µM)
- solubility at 240 min (supercritical CO2, T 338.0 K (text 338.2 K), P 27 MPa, ρCO2 783.19 kg/m^3, read-out: Solubility in supercritical carbon dioxide): 270 µg/mL (≈ 1000 µM)
- solubility at 240 min (supercritical CO2, T 338.0 K (text 338.2 K), P 30 MPa, ρCO2 809.68 kg/m^3, read-out: Solubility in supercritical carbon dioxide): 302 µg/mL (≈ 1120 µM)
